Measurements: paper PMC6268188, “Comparative Studies of the (Anti) Mutagenicity of Baccharis dracunculifolia and Artepillin C by the Bacterial Reverse Mutation Test” (Molecules, 2012)
Values joined by “and” are separate entries in the source; they are usually repeats but may differ in a detail not shown here. Equal values may be shown once. Read-outs that look alike come from different tables or passages of the source.

Assays:
S. typhimurium TA102 [1] = experiment: Antimutagenicity assay (Ames test with known mutagens), strain TA102; assay type: cell-based, Salmonella typhimurium
[2] = test system: DNA damage induced by methyl methanesulfonate and doxorubicin; details: micronucleus and comet assays; cited from earlier work
S. typhimurium TA102 [3] = test system: S. typhimurium TA102
[4] = 5.49 µg/plate + AF 10.0 μg/plate, TA 102, + S9
[5] = 5.49 µg/plate + MMC 0.5 μg/plate, TA 102, − S9
[6] = […] + AF 10.0 μg/plate, TA 102, + S9
[7] = […] + MMC 0.5 μg/plate, TA 102, − S9
[8] = 0.69 µg/plate + AA 1.25 μg/plate, TA 97a, + S9
[9] = 0.69 µg/plate + NOPD 10.0 μg/plate, TA 97a, − S9
[10] = 1.37 µg/plate + AA 1.25 μg/plate, TA 97a, + S9
[11] = 1.37 µg/plate + NOPD 10.0 μg/plate, TA 97a, − S9
[12] = 2.75 µg/plate + AA 1.25 μg/plate, TA 97a, + S9
[13] = 2.75 µg/plate + NOPD 10.0 μg/plate, TA 97a, − S9
[14] = 5.49 µg/plate + AA 1.25 μg/plate, TA 97a, + S9
[15] = 5.49 µg/plate + NOPD 10.0 μg/plate, TA 97a, − S9
[16] = […] + AA 1.25 μg/plate, TA 97a, + S9
[17] = […] + NOPD 10.0 μg/plate, TA 97a, − S9

CC(C)=CCc1cc(/C=C/C(=O)O)cc(CC=C(C)C)c1O [ArtC, 3-{4-hydroxy-3,5-di(3-methyl-2-butenyl)phenyl}-2(E)-propenoic acid]
% inhibition (S. typhimurium TA102 [1]; [4]): 56% | Number of revertants (M ± SD)/ plate (S. typhimurium TA102 [1]; [4]): 488 ± 14 revertants/plate | antimutagenic effect class (S. typhimurium TA102 [1]; [4]): *** (strong antimutagenic effect (> 40% inhibition)) | % inhibition (S. typhimurium TA102 [1]; [5]): 12% | Number of revertants (M ± SD)/ plate (S. typhimurium TA102 [1]; [5]): 943 ± 17 revertants/plate | antimutagenic effect class (S. typhimurium TA102 [1]; [5]): * (no antimutagenic effect (< 25% inhibition)) | effect on MMC-induced mutagenicity (S. typhimurium TA102 [1]; TA102, MMC): did not affect | % inhibition (S. typhimurium TA102 [1]; [6]): 52% | antimutagenic effect class (S. typhimurium TA102 [1]; [6]): *** (strong antimutagenic effect (> 40% inhibition)) | % inhibition (S. typhimurium TA102 [1]; [7]): 18% | antimutagenic effect class (S. typhimurium TA102 [1]; [7]): * (no antimutagenic effect (< 25% inhibition)) | protection against DNA damage [2]: able to protect against DNA damage | Number of revertants (M ± SD)/ plate (S. typhimurium TA97a): 891 ± 17 revertants/plate and 1602 ± 17 revertants/plate | % inhibition (S. typhimurium TA97a; [8]): 14% | Number of revertants (M ± SD)/ plate (S. typhimurium TA97a; [8]): 1603 ± 26 revertants/plate | antimutagenic effect class (S. typhimurium TA97a; [8]): * (no antimutagenic effect (< 25% inhibition)) | % inhibition (S. typhimurium TA97a; [9]): 21% | Number of revertants (M ± SD)/ plate (S. typhimurium TA97a; [9]): 876 ± 8 revertants/plate | antimutagenic effect class (S. typhimurium TA97a; [9]): * (no antimutagenic effect (< 25% inhibition)) | % inhibition (S. typhimurium TA97a; [10]): 13% | Number of revertants (M ± SD)/ plate (S. typhimurium TA97a; [10]): 1617 ± 16 revertants/plate | antimutagenic effect class (S. typhimurium TA97a; [10]): * (no antimutagenic effect (< 25% inhibition)) | % inhibition (S. typhimurium TA97a; [11]): 22% | Number of revertants (M ± SD)/ plate (S. typhimurium TA97a; [11]): 862 ± 14 revertants/plate | antimutagenic effect class (S. typhimurium TA97a; [11]): * (no antimutagenic effect (< 25% inhibition)) | % inhibition (S. typhimurium TA97a; [12]): 10% | Number of revertants (M ± SD)/ plate (S. typhimurium TA97a; [12]): 1669 ± 19 revertants/plate | antimutagenic effect class (S. typhimurium TA97a; [12]): * (no antimutagenic effect (< 25% inhibition)) | % inhibition (S. typhimurium TA97a; [13]): 20% | Number of revertants (M ± SD)/ plate (S. typhimurium TA97a; [13]): 885 ± 19 revertants/plate | antimutagenic effect class (S. typhimurium TA97a; [13]): * (no antimutagenic effect (< 25% inhibition)) | % inhibition (S. typhimurium TA97a; [14]): 13% | Number of revertants (M ± SD)/ plate (S. typhimurium TA97a; [14]): 1620 ± 21 revertants/plate | antimutagenic effect class (S. typhimurium TA97a; [14]): * (no antimutagenic effect (< 25% inhibition)) | % inhibition (S. typhimurium TA97a; [15]): 16% | Number of revertants (M ± SD)/ plate (S. typhimurium TA97a; [15]): 933 ± 7 revertants/plate | antimutagenic effect class (S. typhimurium TA97a; [15]): * (no antimutagenic effect (< 25% inhibition)) | reduction of NOPD mutagenicity (S. typhimurium TA97a; TA97a, NOPD): no antimutagenic activity | reduction of AA mutagenicity (S. typhimurium TA97a; TA97a, with metabolic activation, AA): no antimutagenic activity | % inhibition (S. typhimurium TA97a; [16]): 14% | antimutagenic effect class (S. typhimurium TA97a; [16]): * (no antimutagenic effect (< 25% inhibition)) | % inhibition (S. typhimurium TA97a; [17]): 19% | antimutagenic effect class (S. typhimurium TA97a; [17]): * (no antimutagenic effect (< 25% inhibition)) | MI (mutagenicity index) (S. typhimurium TA100; 0.69 µg/plate, TA 100, + S9): 1.0 | Number of revertants (M ± SD)/ plate (S. typhimurium TA100; 0.69 µg/plate, TA 100, + S9): 171 ± 1 revertants/plate | MI (mutagenicity index) (S. typhimurium TA100; 0.69 µg/plate, TA 100, − S9): 1.2 | Number of revertants (M ± SD)/ plate (S. typhimurium TA100; 0.69 µg/plate, TA 100, − S9): 179 ± 4 revertants/plate | MI (mutagenicity index) (S. typhimurium TA100; 1.37 µg/plate, TA 100, + S9): 1.0 | Number of revertants (M ± SD)/ plate (S. typhimurium TA100; 1.37 µg/plate, TA 100, + S9): 171 ± 2 revertants/plate | MI (mutagenicity index) (S. typhimurium TA100; 1.37 µg/plate, TA 100, − S9): 1.1 | Number of revertants (M ± SD)/ plate (S. typhimurium TA100; 1.37 µg/plate, TA 100, − S9): 174 ± 4 revertants/plate | MI (mutagenicity index) (S. typhimurium TA100; 2.75 µg/plate, TA 100, + S9): 0.9 | Number of revertants (M ± SD)/ plate (S. typhimurium TA100; 2.75 µg/plate, TA 100, + S9): 144 ± 2 revertants/plate | MI (mutagenicity index) (S. typhimurium TA100; 2.75 µg/plate, TA 100, − S9): 1.1 | Number of revertants (M ± SD)/ plate (S. typhimurium TA100; 2.75 µg/plate, TA 100, − S9): 169 ± 6 revertants/plate | MI (mutagenicity index) (S. typhimurium TA100; 5.49 µg/plate, TA 100, + S9): 0.9 | Number of revertants (M ± SD)/ plate (S. typhimurium TA100; 5.49 µg/plate, TA 100, + S9): 153 ± 2 revertants/plate | MI (mutagenicity index) (S. typhimurium TA100; 5.49 µg/plate, TA 100, − S9): 1.0 | Number of revertants (M ± SD)/ plate (S. typhimurium TA100; 5.49 µg/plate, TA 100, − S9): 158 ± 7 revertants/plate | MI (mutagenicity index) (S. typhimurium TA102 [3]; 0.69 µg/plate, TA 102, + S9): 0.9 | Number of revertants (M ± SD)/ plate (S. typhimurium TA102 [3]; 0.69 µg/plate, TA 102, + S9): 204 ± 4 revertants/plate | MI (mutagenicity index) (S. typhimurium TA102 [3]; 0.69 µg/plate, TA 102, − S9): 0.9 | Number of revertants (M ± SD)/ plate (S. typhimurium TA102 [3]; 0.69 µg/plate, TA 102, − S9): 204 ± 4 revertants/plate | MI (mutagenicity index) (S. typhimurium TA102 [3]; 1.37 µg/plate, TA 102, + S9): 1.0 | Number of revertants (M ± SD)/ plate (S. typhimurium TA102 [3]; 1.37 µg/plate, TA 102, + S9): 213 ± 3 revertants/plate | MI (mutagenicity index) (S. typhimurium TA102 [3]; 1.37 µg/plate, TA 102, − S9): 1.0 | Number of revertants (M ± SD)/ plate (S. typhimurium TA102 [3]; 1.37 µg/plate, TA 102, − S9): 213 ± 3 revertants/plate | MI (mutagenicity index) (S. typhimurium TA102 [3]; 2.75 µg/plate, TA 102, + S9): 0.9 | Number of revertants (M ± SD)/ plate (S. typhimurium TA102 [3]; 2.75 µg/plate, TA 102, + S9): 187 ± 5 revertants/plate | MI (mutagenicity index) (S. typhimurium TA102 [3]; 2.75 µg/plate, TA 102, − S9): 0.9 | Number of revertants (M ± SD)/ plate (S. typhimurium TA102 [3]; 2.75 µg/plate, TA 102, − S9): 187 ± 5 revertants/plate | MI (mutagenicity index) (S. typhimurium TA102 [3]; 5.49 µg/plate, TA 102, + S9): 1.0 | Number of revertants (M ± SD)/ plate (S. typhimurium TA102 [3]; 5.49 µg/plate, TA 102, + S9): 215 ± 5 revertants/plate | MI (mutagenicity index) (S. typhimurium TA102 [3]; 5.49 µg/plate, TA 102, − S9): 1.0 | Number of revertants (M ± SD)/ plate (S. typhimurium TA102 [3]; 5.49 µg/plate, TA 102, − S9): 215 ± 5 revertants/plate | MI (mutagenicity index) (S. typhimurium TA102 [3]; Salmonella typhimurium): 203 ± 6 (0.9) | Number of revertants (M ± SD)/ plate (S. typhimurium TA102 [3]; Salmonella typhimurium): 203 ± 6 (0.9) revertants/plate
